Source: patent publication US8822503B2, “2-pyridone compounds” (Taisho Pharmaceutical Co., Ltd, priority 2009, dated 2014)

target: T1, human liver GK (Homo sapiens, UniProt P35557); assay: GK activation test; format: biochemical; details: test compound concentration needed to activate 50% of maximum activation ability; 4 mM 14C-labeled glucose, 2 mM ATP, room temperature, 20 minutes
T1 construct: GST (glutathione S-transferase) (N); made in house; host or cells: E. coli
T1 sequence (P35557 1-466 isoform P35557-2): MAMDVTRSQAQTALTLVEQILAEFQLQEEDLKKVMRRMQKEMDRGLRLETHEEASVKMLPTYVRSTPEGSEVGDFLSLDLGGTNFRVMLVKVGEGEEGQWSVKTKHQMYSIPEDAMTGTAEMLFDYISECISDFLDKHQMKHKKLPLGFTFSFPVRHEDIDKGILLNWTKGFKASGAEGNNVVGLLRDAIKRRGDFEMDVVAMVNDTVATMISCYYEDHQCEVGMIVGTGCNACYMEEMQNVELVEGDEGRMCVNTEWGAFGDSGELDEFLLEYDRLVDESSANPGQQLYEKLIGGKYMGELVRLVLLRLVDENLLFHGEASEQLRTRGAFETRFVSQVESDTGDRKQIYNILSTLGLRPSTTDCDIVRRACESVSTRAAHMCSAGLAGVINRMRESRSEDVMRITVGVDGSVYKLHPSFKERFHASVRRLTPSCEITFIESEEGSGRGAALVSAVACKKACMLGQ
Outline: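 GST-tagged human liver GK from E. coli (0.24 μg/well) with 4 mM 14C-glucose, 2 mM ATP in Hepes-KOH pH 7.1, KCl, MgCl2, DTT, 1% DMSO, 20 min room temperature. Labeled glucose 6-phosphate captured on anion resin, eluted and counted. EC50 = concentration giving half of maximal activation.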

| Compound | EC50 [µM] |
| --- | --- |
| Cc1ccc(/C(=C\[C@H]2CCC(=O)N2)c2ccc(C3CC3)c(=O)[nH]2)cc1 [Example 4-4, 3-Cyclopropyl-6-{(E)-1-(4-methylphenyl)-2-[(2R)-5-oxopyrrolidin-2-yl]ethenyl}pyridin-2(1H)-one] | 0.01 to 0.5 |
| CCc1ccc(/C(=C\[C@H]2CCC(=O)N2)c2ccc(C3CC3)c(=O)[nH]2)cc1 [Example 4-5, 3-Cyclopropyl-6-{(E)-1-(4-ethylphenyl)-2-[(2R)-5-oxopyrrolidin-2-yl]ethenyl}pyridin-2(1H)-one] | 0.01 to 0.5 |
| CCOc1ccc(/C(=C\[C@H]2CCC(=O)N2)c2ccc(C3CC3)c(=O)[nH]2)cc1 [Example 4-6, 3-Cyclopropyl-6-{(E)-1-(4-ethoxyphenyl)-2-[(2R)-5-oxopyrrolidin-2-yl]ethenyl}pyridin-2(1H)-one] | 0.01 to 0.5 |
| CCOc1cccc(/C(=C\[C@H]2CCC(=O)N2)c2ccc(C3CC3)c(=O)[nH]2)c1 [Example 4-7, 3-Cyclopropyl-6-{(E)-1-(3-ethoxyphenyl)-2-[(2R)-5-oxopyrrolidin-2-yl]ethenyl}pyridin-2(1H)-one] | 0.5 to 3 |
| O=C1CC[C@H](/C=C(\c2cccc(OCCCO)c2)c2ccc(C3CC3)c(=O)[nH]2)N1 [Example 4-8, 3-Cyclopropyl-6-{(E)-1-[3-(3-hydroxypropoxy)phenyl]-2-[(2R)-5-oxopyrrolidin-2-yl]ethenyl}pyridin-2(1H)-one] | 0.5 to 3 |
| O=C1CC[C@H](/C=C(\c2cccc(OCCCCO)c2)c2ccc(C3CC3)c(=O)[nH]2)N1 [Example 4-9, 3-Cyclopropyl-6-{(E)-1-[3-(4-hydroxybutoxy)phenyl]-2-[(2R)-5-oxopyrrolidin-2-yl]ethenyl}pyridin-2(1H)-one] | 0.5 to 3 |
| CCOc1ccc(/C(=C\[C@H]2CCC(=O)N2)c2ccc(C3CC3)c(=O)[nH]2)cc1Cl [Example 4-10, 6-{(E)-1-(3-Chloro-4-ethoxyphenyl)-2-[(2R)-5-oxopyrrolidin-2-yl]ethenyl}-3-cyclopropylpyridin-2(1H)-one] | 0.01 to 0.5 |
| O=C1CC[C@H](/C=C(\c2ccc(OCCCCO)c(Cl)c2)c2ccc(C3CC3)c(=O)[nH]2)N1 [Example 4-11, 6-{(E)-1-[3-Chloro-4-(4-hydroxybutoxy)phenyl]-2-[(2R)-5-oxopyrrolidin-2-yl]ethenyl}-3-cyclopropylpyridin-2(1H)-one] | 0.01 to 0.5 |
| Cc1cc(/C(=C\[C@H]2CCC(=O)N2)c2ccc(C3CC3)c(=O)[nH]2)ccc1SC1CC1 [Example 4-12, 3-Cyclopropyl-6-{(E)-1-[4-(cyclopropylsulfanyl)-3-methylphenyl]-2-[(2R)-5-oxopyrrolidin-2-yl]ethenyl}pyridin-2(1H)-one] | 0.01 to 0.5 |
| O=C1CC[C@H](/C=C(\c2ccc(SC3CC3)c(Cl)c2)c2ccc(Cl)c(=O)[nH]2)N1 [Example 4-13, 3-Chloro-6-{(E)-1-[3-chloro-4-(cyclopropylsulfanyl)phenyl]-2-[(2R)-5-oxopyrrolidin-2-yl]ethenyl}pyridin-2(1H)-one] | 0.01 to 0.5 |
| CCc1ccc(/C(=C\[C@H]2CCC(=O)N2)c2ccc(Cl)c(=O)[nH]2)cc1 [Example 4-14, 3-Chloro-6-{(E)-1-(4-ethylphenyl)-2-[(2R)-5-oxopyrrolidin-2-yl]ethenyl}pyridin-2(1H)-one] | 0.5 to 3 |
| CC(C)c1ccc(/C(=C\[C@H]2CCC(=O)N2)c2ccc(Cl)c(=O)[nH]2)cc1 [Example 4-15, 3-Chloro-6-{(E)-2-[(2R)-5-oxopyrrolidin-2-yl]-1-[4-(propan-2-yl)phenyl]ethenyl}pyridin-2(1H)-one] | 0.01 to 0.5 |
| CCCc1ccc(/C(=C\[C@H]2CCC(=O)N2)c2ccc(Cl)c(=O)[nH]2)cc1 [Example 4-16, 3-Chloro-6-[(E)-2-[(2R)-5-oxopyrrolidin-2-yl]-1-(4-propylphenyl)ethenyl]pyridin-2(1H)-one] | 0.5 to 3 |
| CCCCc1ccc(/C(=C\[C@H]2CCC(=O)N2)c2ccc(Cl)c(=O)[nH]2)cc1 [Example 4-17, 6-{(E)-1-(4-Butylphenyl)-2-[(2R)-5-oxopyrrolidin-2-yl]ethenyl}-3-chloropyridin-2(1H)-one] | 0.01 to 0.5 |
